Experimental findings from article PMC4076079, “Selective inhibitors of a PAF biosynthetic enzyme lysophosphatidylcholine acyltransferase 2” (Journal of Lipid Research, 2014) are described below.

For orientation: IC50 means the concentration that inhibits the measured activity by half.

Data set [1] is described as follows: cell viability assay (WST-8). It counts as cell-based. The note with it: mouse, RAW264.7 cells (wild-type), 36 h treatment, data not shown, read-out: cytotoxicity IC50 (cell viability). The method, then: Cell viability was measured using a modified MTT [3-(4,5-dimethylthiazol-2-yl)-2,5-diphenyltetrazolium bromide] dye reduction assay using WST-8 [2-(2-methoxy-4-nitrophenyl)-3-(4-nitrophenyl)-5-(2,4-disulfophenyl)-2H-tetrazolium, monosodium salt; Dojindo Molecular Technologies, Inc., Kumamoto, Japan] according to the manufacturer’s instructions. […] or RAW-mLPCAT2 cells were seeded in 96-well plates (1 × 10^4 cells/well) for 8 h and then treated with a compound for 36 h. WST-8 was added for another 2 h and the 450 nm absorbance was measured using a microplate reader (Bio-Rad). Cell viability was expressed as a percentage of vehicle-treated control values. To observe the effects of the incubation time on cell viability, 0.4 × 10^4 RAW-mLPCAT2 cells were treated with compounds for 1 or 6 h before the WST-8 assay.
Step 8 screening: cell viability assay
Wild-type RAW264.7 cells and RAW264.7 cells transfected with mLPCAT2 or control plasmid were used. Cells were cultured for 36 h with 0, 0.06, 0.2, 0.6, 2, 6, and 20 µM of compounds in 96-well plates and assayed for viability with WST-8. […]
The data were normalized to each positive control (100% activation). Percentage inhibition or IC50 were determined in each screening step. To assess screening quality, the percentage coefficient of variance and the Z’ factor was calculated for each plate or each assay as described previously (2).
For orientation: Tetrazolium assays rely on reduction of a dye to a coloured formazan, in cell work by metabolically active cells.

In a further data set the target is T1, mLPCAT2 (Mus musculus, UniProt Q8BYI6).
T1 construct: expressed in transfected cells; host or cells: CHO-S-PAFR cells, microsomal fraction, with or without mcPAF stimulation
T1 sequence (Q8BYI6 1-544): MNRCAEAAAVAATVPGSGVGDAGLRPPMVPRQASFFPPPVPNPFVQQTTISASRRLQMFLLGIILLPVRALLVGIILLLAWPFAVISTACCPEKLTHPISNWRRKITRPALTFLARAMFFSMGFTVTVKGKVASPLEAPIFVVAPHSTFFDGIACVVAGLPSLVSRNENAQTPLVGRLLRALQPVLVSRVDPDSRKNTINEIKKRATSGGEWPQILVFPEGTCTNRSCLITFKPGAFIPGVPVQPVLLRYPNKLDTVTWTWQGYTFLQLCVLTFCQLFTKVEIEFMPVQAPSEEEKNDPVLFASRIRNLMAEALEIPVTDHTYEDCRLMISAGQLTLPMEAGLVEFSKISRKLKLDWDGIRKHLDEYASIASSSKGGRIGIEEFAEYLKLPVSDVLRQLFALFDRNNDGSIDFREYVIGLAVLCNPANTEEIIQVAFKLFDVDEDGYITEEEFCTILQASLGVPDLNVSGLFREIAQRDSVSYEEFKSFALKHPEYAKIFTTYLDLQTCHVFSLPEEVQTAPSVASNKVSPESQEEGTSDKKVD
Description: acyltransferase activity assay, 16:0/20:4 alkyl-PC product. The settings on record: 20 μM compound; microsomal fractions of nonstimulated CHO-S-PAFR cells; n = 3, mean ± SEM. The format is biochemical. The protocol: Microsomal protein fractions (0.5 μg) supplemented with the indicated compound concentrations were added to the reaction mixture containing 100 mM Tris-HCl (pH 7.4), 1 μM CaCl2, 0.015% Tween-20, and two substrates. For acetyltransferase activity, the substrates were 1 mM acetyl-CoA and 5 μM d4-lyso-PAF; for the acyltransferase activity of LPCAT1 or LPCAT2, the substrates were, respectively, palmitoyl-CoA and d31-16:0 LPC or arachidonoyl-CoA and d4-lyso-PAF (all 5 μM). Each lysophospholipid contained fatty acid at the sn-1 position. After incubation at 37°C for 5 min, the reactions were stopped by adding 300 μl methanol containing 17:0 LPC or 14:0/14:0 PC as an internal standard. Deuterium-labeled products were analyzed by LC-MS/MS (Waters, Milford, MA and Thermo Scientific, Waltham, MA). […]
arachidonoyl-CoA, 5 µM; palmitoyl-CoA, 5 µM; d4-lyso-PAF, 5 µM; and d31-LPC, 5 µM. […]
deuterium-labeled products were measured by LC-MS/MS. […]
Step 7 screening: species-specific differences
To evaluate the effects on the activity of mouse or human LPCAT1 and LPCAT2, each microsomal fraction was obtained using CHO-S-PAFR cells with or without mcPAF (200 nM) stimulation for 5 min. Acetyltransferase and acyltransferase assays were performed with 20 µM of each compound. Percentage inhibition was calculated in each

Molecules are shown by their SMILES.

Regarding `CCCCOC(=O)c1ccc(N2C(=O)C(Cl)=C(Cl)C2=O)cc1` [TSI-11, butyl 4-(3,4-dichloro-2,5-dioxopyrrol-1-yl)benzoate], the IC50 at 36 h in data set [1] was more than 20 µM. The “percentage inhibition, product 16:0/20:4 Alkyl-PC, mLPCAT2” value at mLPCAT2 is 83.0 ± 3.5 percentage.
The corresponding values for `CC(C)OC(=O)c1ccc(N2C(=O)C(Cl)=C(Nc3ccccc3O)C2=O)cc1` [TSI-07] are more than 20 µM and 82.4 ± 5.7 percentage.
The corresponding values for `CC(C)OC(=O)c1ccc(N2C(=O)C(Cl)=C(Cl)C2=O)cc1` [TSI-01, propan-2-yl 4-(3,4-dichloro-2,5-dioxopyrrol-1-yl)benzoate] are more than 20 µM and 95.5 ± 1.8 percentage.
Regarding `CCCOC(=O)c1ccc(N2C(=O)C(Cl)=C(Cl)C2=O)cc1` [TSI-10], the IC50 at 36 h in data set [1] was more than 20 µM. Further, at mLPCAT2, the “percentage inhibition, product 16:0/20:4 Alkyl-PC, mLPCAT2” value is given as 86.7 ± 5.2 percentage.
